Measurements taken from paper PMC11857211, “Bioprospecting Bioactive Peptides in Halobatrachus didactylus Body Mucus: From In Silico Insights to Essential In Vitro Validation” (Marine Drugs, 2025).
“Also recorded” adds a separate entry of the source.

How the values were obtained:
[1] = cited from earlier work
Text: Table 4 Summary of peptide solubility and concentration values. | column: Solubility || A high-performance size exclusion chromatography (HPSEC) analysis was employed to validate the molecular weight of the selected peptides, HdKTLR, HdKNL, HdVLPN, and HdLPN, synthesized by GenScript Biotech (Rijswijk, The Netherlands), following the preparation instructions provided in the technical datasheet. […] At higher concentrations, viscosity may increase due to molecular interactions between DMSO, buffer ions, and water. In iso ...

[2] = ORAC assay of peptide mixed with mucus (synergy); set-up: Increase in ORAC antioxidant activity of peptide combined with mucus versus sum of the individual systems: concentration or dose not given beside the values; details: for Increase in ORAC antioxidant activity of peptide combined with mucus versus sum of the individual systems: one part peptide to four parts mucus; for ORAC of the peptide alone in the synergy experiment: one part peptide to four parts phosphate buffer, Figure 3 captive, Figure 4 wild series
Protocol: The ORAC assay followed the protocol outlined by Coscueta et al.. […] Fluorescence was monitored for 80 min at 1 min intervals. Each sample, standard, blank, or control, analysis was duplicated. The final ORAC values were expressed as µmol TE/µmol of peptide for the peptides and µmol TE /mg of protein for the digestion retentate and permeate contents. The synergistic interaction between the mucus and peptides was performed by mixing the peptides with mucus at a ratio of one part peptide to four parts mucus. In addition, control analyses were performed by mixing one part of the phosphate buffer with four parts of the mucus and another with one part of the peptide to four parts of the phosphate buffer. The mixtures were then tested in the ORAC assay. The final ORAC values were expressed as µM TE.

[3] = system: S. aureus biofilm; experiment: Antibiofilm activity (crystal violet); assay type: cell-based, Staphylococcus aureus; details: 24 h incubation, HdKTLR 262, HdKNL 262, HdPPP 130, HdVLPN 204, HdLPN 227 µg/mL, OD 595 nm
Protocol: (§1) The antibiofilm activity was determined according to the following method, with some modifications. Taking the microplate from 24 h inhibition growth curves, the contents of the plate were discarded, and each well was carefully washed three times with distilled water to remove non-adherent cells. The adhered cells were fixed with 150 µL of methanol for 10 min. Then, the methanol was discarded, the plates were left to dry, and then, the fixed biofilm was stained with […] of crystal violet (CV) for 10 min. Excess stain was rinsed out by placing the plate under slow-running tap water. Once the plates were air-dried, the dye attached to the adherent cells was resolubilized by adding 150 µL of 33% (v/v) glacial acetic acid and agitated for 15 min. The optical density of the solution obtained was measured at 595 nm using a multidetection plate reader (Synergy H1, Winooski, VT, USA). All tests were carried out in duplicate, with a positive control using an inoculated culture in MH broth and a negative control using MH broth only. The results are presented as the percentage of biofilm formation, calculated according to the following formula, where the OD of the sample is the measured OD of the inoculated medium mixed with the peptides, and the OD of the positive control is the OD measured for the positive control.% Biofilm formation = (ODsample/ODpositive control) × 100(1)

[4] = system: P. aeruginosa biofilm; experiment: Antibiofilm activity (crystal violet); assay type: cell-based, Pseudomonas aeruginosa; details: 24 h incubation, HdKTLR 262, HdKNL 262, HdPPP 130, HdVLPN 204, HdLPN 227 µg/mL, OD 595 nm
Protocol: as §1

[5] = High-performance size exclusion chromatography (HPSEC): molecular size and aggregation; assay type: physicochemical; details: for Aggregation behaviour in HPSEC: Agilent AdvanceBio SEC 130 Å, isocratic, buffers 344 mM or 700 mM at pH 3.0, 5.0, 7.0, PDA detection
Protocol: The HPSEC column was eluted with 344 mM of a phosphate buffer at pH 7.0, replicating the conditions used to analyze the mucus peptide fraction in our previous article. During the analysis, we observed the formation of peptide aggregates, specifically oligomers, including dimers, trimers, and tetramers. Various buffer conditions were tested to determine if a particular pH and ionic strength would enable the peptides to expose their theoretical molecular weights, as specified in the GenScript technical datasheet. Since seawater typically has an ionic strength of approximately 700 mM [10], buffers with this ionic strength were tested at pH 3.0, 5.0, and 7.0, as well as at 344 mM of ionic strength.
The peptides’ molecular size validation was determined using high-performance size exclusion chromatography (HPSEC). An Agilent AdvanceBio SEC column (Agilent Technologies, London, UK), 2.7 µm in particle size, 130 Å in pore size, and 7.8 in inner diameter × 300 mm in length, was used. The column was eluted isocratically using various buffers with different pH and ionic strengths, namely, 344 mM at pH 7 (0.15 M of a phosphate buffer with NaH2PO4), 700 mM at pH 7 (0.15 M of a phosphate buffer with NaH2PO4 and NaCl), 344 mM at pH 5 (0. 15 M of an acetate buffer with acetic acid and NaCl), 700 mM at pH 5 (0.15 M of an acetate buffer with acetic acid and NaCl), 344 mM at pH 3 (0.05 M of a formate buffer with fomic acid and NaCl), and 700 mM at pH 3 (0.05 M of a formate buffer with formic acid and NaCl) at a flow rate of 1 mL/min. The sample injection volume was 10 µL. The instrument used was Waters 2690 with a photodiode array detector (PDA 190–600 nm). The software Empower 3 was used for data collection. To determine the molecular weights of the resulting chromatogram peaks, a calibration curve was made with the following protein standards: Ovalbumin (44,300 Da), Myoglobin (17,600 Da), Cytochrome C (12,327 Da), Aprotinin (6511 Da), Neurotensin (1672 Da), Angiotensin-II (1040 Da), Tyr-Phe dipeptide (328.4 Da), and L-tryptophan (204 Da).

## DPPNPKNL [HdKNL]
[1]
  Solubility (solvent): H2O
[2]; captive mucus sample
  Increase in ORAC antioxidant activity of peptide combined with mucus versus sum of the individual systems: 126%
[2]
  ORAC of the peptide alone in the synergy experiment: no antioxidant activity was detected
[3]
  Biofilm formation versus control: no significant differences
[4]
  Biofilm formation versus control: substantially reduced biofilm production
[5]
  Aggregation behaviour in HPSEC: aggregate formation increased at higher pH conditions; also recorded: aggregation was still observed

## EDNSELGQETPTLR [HdKTLR]
[1]
  Solubility (solvent): H2O
[2]
  ORAC of the peptide alone in the synergy experiment: no antioxidant activity was detected
[3]
  Biofilm formation versus control: no significant differences
[4]
  Biofilm formation versus control: substantially reduced biofilm production
[5]
  Aggregation behaviour in HPSEC: formation of aggregates into oligomers; also recorded: pronounced aggregation
[5]; buffers with ionic strengths of 344 mM and 700 mM at pH 7.0 and pH 5.0, theoretical molecular weight 1588.4 Da
  Molecular weight observed by HPSEC (aggregate): approximately 7836 Da

## PFPGPLPN [HdLPN]
[1]
  Solubility (solvent): H2O
[2]; captive mucus sample
  Increase in ORAC antioxidant activity of peptide combined with mucus versus sum of the individual systems: 51%
[2]; wild mucus sample
  Increase in ORAC antioxidant activity of peptide combined with mucus versus sum of the individual systems: 54%
[3]
  Biofilm formation versus control: no significant differences
[4]
  Biofilm formation versus control: substantially reduced biofilm production
[5]
  Aggregation behaviour in HPSEC: forming only dimers; also recorded: aggregation was still observed

## VYPFPGPLPN [HdVLPN]
[1]
  Solubility (solvent): H2O
[2]; captive mucus sample
  Increase in ORAC antioxidant activity of peptide combined with mucus versus sum of the individual systems: 31%
[2]; wild mucus sample
  Increase in ORAC antioxidant activity of peptide combined with mucus versus sum of the individual systems: 44%
[3]
  Biofilm formation versus control: no significant differences
[4]
  Biofilm formation versus control: substantially reduced biofilm production
[5]
  Aggregation behaviour in HPSEC: degree of polymerization was less prominent than in the other peptides; also recorded: aggregation was still observed
